Measured values reported in patent US8198285B2, “Pyrazine derivatives” (Astrazeneca AB, priority 2010, dated 2012).
Where a name gives a salt, the structure may show the parent alone.

Columns and labels:
[1] = molecular target: DYRK1a (Dual Specificity Tyrosine Phosphorylated and Regulated Kinase 1a) (Homo sapiens, UniProt Q13627); assay: Inhibitory activity against DYRK1a; type: biochemical
[2] = system: β-catenin accumulation in the nucleus of murine C3H/10T1/2 cells; assay: Cellular beta-catenin stabilisation assay, Test (b); type: cell-based; settings: Mus musculus, 24 hours, read-out: EC50 versus cellular β-catenin accumulation in the nucleus of murine C3H/10T1/2 cells
Method: This assay uses an imaging based approach to measure the ability of test compounds to promote Beta-catenin stabilisation in the nucleus of C3H10T1/2 cells. Beta-catenin stabilisation is an indicator of GSK3β inhibition.
A C3H10T1/2 mouse clone 8 fibroblast cell line (American Type Culture Collection (ATCC, USA; catalogue number CRL 226) was routinely maintained at 37° C. with 5% CO2 in Basal Medium Eagle (BME, Invitrogen; Paisley, UK; catalogue number 41010) containing 10% (v/v) foetal bovine serum (FBS, Invitrogen, Paisley; UK; catalogue number 10270) and 2 mM L-glutamine (Invitrogen, Paisley, UK; catalogue number 25030024). For the assay, the cells were detached from the culture flask with ‘Accutase’ (Innovative Cell Technologies Inc., San Diego, USA; catalogue number AT104) using standard tissue culture methods and re-suspended in assay media comprising of BME containing 5% (v/v) FBS and 2 mM L-glutamine to give 55,555 cells per ml. Then, 90 μl of this solution was seeded into each well of a clear-bottom 96 well tissue culture plate (Perkin Elmer Viewplate; catalogue number 6005182) using a Multidrop Combi Dispenser (Thermo Fisher Scientific, Loughborough, UK) to give 5,000 cells per well. Plates were incubated overnight at 37° C. with 5% CO2 to allow the cells to adhere to the wells. Test compounds were prepared as 10 mM stock solutions in dimethylsulphoxide (DMSO) (Sigma-Aldrich; Poole, UK, catalogue number 49442-9) and serially diluted in DMSO. A Multidrop Combi was used to dispense 245 μl of pre-warmed assay media into a 96 well plate (Thermo Fisher Scientific, Loughborough, UK; catalogue number 50823925) before 5 μl of serially diluted compound was added to this intermediate plate. After mixing, 10 μl of each compound concentration was added to the cell plates. The total dilution factor from DMSO stock was 500 times. Control cells received either DMSO (0.2% v/v final concentration) or 10 μM positive control compound. The cells were incubated for 24 hours at 37° C. with 5% CO2.
After compound treatment the cells were fixed by the addition of 100 μl of 8% w/v paraformaldehyde (Sigma-Aldrich, Poole, UK; catalogue number P6148), directly into the assay plate wells. The cells were incubated at ambient temperature with fixative for 30 minutes before washing 3 times with 100 μl phosphate-buffered saline (PBS, Sigma-Aldrich; catalogue number D8537). […] The cells were then washed 3 times in 100 μl of PBS before the plates were sealed ready for image capture. Fluorescent images were captured and quantified using the Incell Analyser 3000 (GE Healthcare, USA). […]

COCCCNCCCc1ccc(-c2cnc(N)c(C(=O)Nc3cccnc3)n2)cc1 [Example 1, 3-Amino-6-(4-{3-[(3-methoxypropyl)amino]propyl}phenyl)-N-pyridin-3-ylpyrazine-2-carboxamide tri-hydrochloride]
Inhibitory activity against DYRK1a [1]: inhibitory activity
EC50 [2]: ~0.242 µM
